In patent US20230285405A1, “Pharmaceuticals for Treating or Preventing Nidoviruses and Picornaviruses” (priority 2020, published 2023):
Where a name gives a salt, the structure may show the parent alone. Read-outs that look alike come from different tables or passages of the source.

Legend:
OC43 = assay: Drug screening: OC43 nucleoprotein staining in infected A549-mRuby cells; type: cell-based, human beta coronavirus OC43; settings: for activity at 10 µM: Betacoronavirus 1, OC43, 96 h
Protocol: A549-mRuby cells were seeded (3,000 cells per well) in nine 384-well plates using Multidrop combi. Cells were seeded in a final volume of 30 μl with DMEM+10% BCS. The following day, 20 μl of OC43 were added (MOI 0.3) and incubated at 33° C., 5% CO2 for 1 hour. 50 nl from the Selleck FDA-approved drug library (cat #L1300, Selleck) were added (1:1,000 dilution). Two columns (32 wells) were left uninfected and two columns were treated with DMSO and virus (no drug control). Cells were imaged using the IncuCyte S3 to measure cell numbers at day 0. Cells were incubated for 4 days at 33° C., 5% CO2 and were stained for OC43 nucleoprotein. All the following steps were performed at room temperature. Cells were fixed in 50 μl 4% PFA/PBS for 15 min, blocked with 50 μl 10% BSA+0.5% Triton X-100 in PBS for 30 minutes, stained with 50 μl anti-OC43 (cat #MAB9013, Milipore) diluted 1:2,000 in 2% BSA+0.1% Triton X-100 in PBS for 1 hour, washed with 50 μl PBS three times, stained with anti-mouse-AlexaFluor488 diluted 1:1,000 in 2% BSA+0.1% Triton X-100 in PBS for 1 hour, washed with 50 μl PBS three times and imaged on the IncuCyte S3 (day 4). The screen was performed twice.
(§1) The following parameters were extracted from the images: number of cells at day 0, number of cells at day 4 and total OC43 staining intensity at day 4. For analysis, OC43 staining intensity was normalized to the number of cells in the well and further normalized to the mean of the no drug controls, which was set to 100. […] For each plate, a drug was considered as a putative hit if it reduced OC43 staining by over 3 standard deviations from the mean of the no drug controls. Drugs were considered hits if they were not toxic and reduced OC43 staining by over 3 standard deviations in both repeats.
(§2) A library of 1,900 clinically used drugs was screened, the drugs either approved for human use or having extensive safety data in humans (Phase 2 or 3 clinical trials), for their ability to inhibit OC43 infection of the human lung epithelial cell line A549 (expressing an H2B-mRuby nuclear reporter). One day after plating, cells were infected at an MOI of 0.3, incubated at 33° C. for 1 hour and drugs were added to a final concentration of 10 μM. Cells were then incubated at 33° C. for 4 days, fixed and stained for the presence of the viral nucleoprotein. The cells were imaged at day 0 (following drug addition) and day 4 (after staining) to determine the drugs effect on cell growth and OC43 infection.

A549-mRuby cells = assay: Drug screening: effect on cell growth (cell number day 4 / day 0); settings: 10 μM drug; for Growth_1: number of cells at day 4 divided by number of cells at day 0 / toxic_1: repeat #1; for Growth_2: number of cells at day 4 divided by number of cells at day 0 / toxic_2: repeat #2
Protocol: A549-mRuby cells were seeded (3,000 cells per well) in nine 384-well plates using Multidrop combi. Cells were seeded in a final volume of 30 μl with DMEM+10% BCS. The following day, 20 μl of OC43 were added (MOI 0.3) and incubated at 33° C., 5% CO2 for 1 hour. 50 nl from the Selleck FDA-approved drug library (cat #L1300, Selleck) were added (1:1,000 dilution). Two columns (32 wells) were left uninfected and two columns were treated with DMSO and virus (no drug control). Cells were imaged using the IncuCyte S3 to measure cell numbers at day 0. Cells were incubated for 4 days at 33° C., 5% CO2 and were stained for OC43 nucleoprotein. All the following steps were performed at room temperature. […] The screen was performed twice.
as §1, §2

[1] = 10 μM drug, MOI 0.3, 4 days, OC43 staining normalized to no-drug controls, mean of the two screen repeats
[2] = 10 μM drug, MOI 0.3, 4 days, normalized to no-drug controls in the same plate, repeat #1
[3] = 10 μM drug, MOI 0.3, 4 days, normalized to no-drug controls in the same plate, repeat #2
[4] = 10 μM drug, MOI 0.3, 4 days, OC43 staining normalized to no-drug controls, mean of the two screen repeats, read-out: OC43_mean
[5] = 10 μM drug, MOI 0.3, 4 days, normalized to no-drug controls in the same plate, repeat #1, read-out: OC43_1: % staining of OC43 in screen repeat #1
[6] = 10 μM drug, MOI 0.3, 4 days, normalized to no-drug controls in the same plate, repeat #2, read-out: OC43_2: % staining of OC43 in screen repeat #2

Molecule	OC43_mean (OC43; [1])	OC43_1: % staining of OC43 in screen repeat #1 (OC43; [2])	OC43_2: % staining of OC43 in screen repeat #2 (OC43; [3])	hit_1 (OC43; 10 μM drug, repeat #1)	hit_2 (OC43; 10 μM drug, repeat #2)	Growth_1: number of cells at day 4 divided by number of cells at day 0 (A549-mRuby cells)	toxic_1 (A549-mRuby cells)	Growth_2: number of cells at day 4 divided by number of cells at day 0 (A549-mRuby cells)	toxic_2 (A549-mRuby cells)	activity at 10 µM (OC43; [4])	activity at 10 µM (OC43; [5])	activity at 10 µM (OC43; [6])	OC43_1: % staining of OC43 in screen repeat #1 (OC43; 10 μM drug, MOI 0.3, 4 days, normalized to no-drug controls in the same plate, repeat #1, ditosylate monohydrate)	Growth_1: number of cells at day 4 divided by number of cells at day 0 (A549-mRuby cells; ditosylate monohydrate)	Growth_2: number of cells at day 4 divided by number of cells at day 0 (A549-mRuby cells; ditosylate monohydrate)	activity at 10 µM (OC43; read-out: OC43_mean)
Ifenprodil Tartrate	25.6%	29.0%	22.1%	1	1	4.6	0	4.9	0	–	–	–	–	–	–	–
CCC(=O)O[C@H]1[C@H](O[C@@H]2[C@@H](C)[C@H](O[C@H]3C[C@@](C)(OC)[C@@H](O)[C@H](C)O3)[C@@H](C)C(=O)O[C@H](CC)[C@@](C)(O)[C@H](O)[C@@H](C)C(=O)[C@H](C)C[C@@]2(C)O)O[C@H](C)C[C@@H]1N(C)C [Erythromycin estolate]	–	–	–	1	1	4.5	0	4.8	0	20.1%	24.2%	15.9%	–	–	–	–
CS(=O)(=O)CCNCc1ccc(-c2ccc3ncnc(Nc4ccc(OCc5cccc(F)c5)c(Cl)c4)c3c2)o1 [Lapatinib ditosylate monohydrate]	–	–	–	1	1	–	0	–	0	16.6%	–	9.5%	23.8%	4.2	4.2	–
CC(C)(O)CNc1nc(Nc2ccnc(C(F)(F)F)c2)nc(-c2cccc(C(F)(F)F)n2)n1 [Enasidenib (AG-221), Enasidenib]	–	–	–	1	1	5.2	0	4.8	0	26.1%	23.3%	29%	–	–	–	–
COc1ccc(CN2CCN(C(c3ccc(F)cc3)c3ccc(F)cc3)CC2)c(OC)c1OC.Cl.Cl [Lomerizine 2HCl]	39.9%	56.5%	23.3%	1	1	4.7	0	5.3	0	–	–	–	–	–	–	–
CN1C2CCC1CC(OC(c1ccccc1)c1ccccc1)C2.CS(=O)(=O)O (stereo not drawn) [Benztropine mesylate]	–	–	–	1	1	4.4	0	5.1	0	10.1%	7.4%	12.8%	–	–	–	–
CC(C)(C)c1nc(-c2cccc(NS(=O)(=O)c3c(F)cccc3F)c2F)c(-c2ccnc(N)n2)s1 [Dabrafenib (GSK2118436), Dabrafenib]	–	–	–	1	1	3.9	0	5.5	0	41.6%	36.3%	47%	–	–	–	–
CN(C)CCCN1c2ccccc2Sc2ccccc21 [Promazine hydrochloride]	–	–	–	1	1	4.7	0	4.7	0	23%	23.4%	22.6%	–	–	–	–
CN1CCC(=C2c3ccccc3C=Cc3ccccc32)CC1 [Cyproheptadine HCl]	–	–	–	1	1	3.8	0	3.0	0	27%	22.8%	31.2%	–	–	–	–
CS(=O)(=O)CCNCc1ccc(-c2ccc3ncnc(Nc4ccc(OCc5cccc(F)c5)c(Cl)c4)c3c2)o1.Cc1ccc(S(=O)(=O)O)cc1.Cc1ccc(S(=O)(=O)O)cc1 [Lapatinib (GW-572016) Ditosylate]	24.8%	17.6%	32.0%	1	1	5.0	0	5.9	0	–	–	–	–	–	–	–
CO[C@H]1/C=C/O[C@@]2(C)Oc3c(C)c(O)c4c(c3C2=O)C2=NC3(CCN(CC(C)C)CC3)NC2=C(NC(=O)/C(C)=C\C=C\[C@H](C)[C@H](O)[C@@H](C)[C@@H](O)[C@@H](C)[C@H](OC(C)=O)[C@@H]1C)C4=O [Rifabutin]	–	–	–	1	1	5.5	0	5.3	0	41.1%	25.8%	56.4%	–	–	–	–
COc1cc(N)c(Cl)cc1C(=O)NC1CCN(CCCOc2ccc(F)cc2)CC1OC (stereo not drawn) [Cisapride]	–	–	–	1	1	4.1	0	4.5	0	25.3%	28.5%	22.1%	–	–	–	–
CC(C)NCC(O)COc1cccc2ccccc12 (stereo not drawn) [Propranolol HCl]	–	–	–	1	1	5.6	0	4.1	0	–	21.6%	27.7%	–	–	–	24.7%
CCCCOc1cc(C(=O)NCCN(CC)CC)c2ccccc2n1 [Cinchocaine]	–	–	–	1	1	4.3	0	4.2	0	41.6%	18.9%	64.3%	–	–	–	–
C[C@@H]1[C@H](O)[C@@H](C)/C=C/C=C/CC/C=C/C=C/C=C/C=C/C(O[C@H]2O[C@H](C)[C@@H](O)[C@H](N)[C@@H]2O)CC2O[C@](O)(CC(O)C(O)CCC(O)CC(O)CC(O)CC(=O)O[C@H]1C)CC(O)C2C(=O)O (stereo partly drawn) [Nystatin (Fungicidin), Nystatin]	23.3%	27.8%	18.8%	1	1	4.6	0	5.9	0	–	–	–	–	–	–	–
